Test results published in patent EP3046573B1, “AMYLIN ANALOGUES” (Zealand Pharma A/S, priority 2013, dated 2015).
Read-outs that look alike come from different tables or passages of the source. Numbered stars: 1 amine (or outer) side, 2 acyl side, 3 side chain; on linkers, the order of the positions; unused ones are H or OH. Bridge positions count the residues as written; N and C are the ends. Square brackets hold non-standard residues; d marks the D form. Peptide text beside a SMILES is read from it. * marks the point of attachment. C20 diacid = O=C(O)CCCCCCCCCCCCCCCCCCC(=O)*; γGlu = O=C(O)[C@H](CCC(=O)[*:2])N[*:1]; Stearoyl = CCCCCCCCCCCCCCCCCC(=O)*; NMeI = CC[C@H](C)[C@H](NC)C(=O)O; Sar = CNCC(=O)O

How the values were obtained:
[1] = molecular target: T1, human calcitonin receptor (hCTR2) (Homo sapiens, UniProt P30988); test: hCTR2 assay: induction of cAMP (AlphaScreen cAMP Assay kit) in COS7 cells expressing hCTR2; assay type: cell-based
T1 construct: expressed in transfected cells
T1 sequence (P30988 25-474): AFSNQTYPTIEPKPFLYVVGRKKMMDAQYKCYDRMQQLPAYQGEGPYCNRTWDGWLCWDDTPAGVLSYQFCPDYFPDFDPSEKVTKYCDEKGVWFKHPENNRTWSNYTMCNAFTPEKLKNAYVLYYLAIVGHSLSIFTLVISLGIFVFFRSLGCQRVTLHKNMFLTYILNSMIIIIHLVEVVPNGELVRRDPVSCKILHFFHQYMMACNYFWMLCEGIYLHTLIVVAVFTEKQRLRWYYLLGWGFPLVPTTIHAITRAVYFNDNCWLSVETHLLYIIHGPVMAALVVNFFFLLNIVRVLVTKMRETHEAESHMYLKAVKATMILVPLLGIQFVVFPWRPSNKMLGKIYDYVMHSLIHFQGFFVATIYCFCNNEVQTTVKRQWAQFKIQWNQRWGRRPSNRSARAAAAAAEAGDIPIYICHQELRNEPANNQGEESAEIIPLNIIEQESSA
How it was run: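 cAMP induction was measured by AlphaScreen in COS7 cells stably expressing hCTR2 without RAMPs, after 15 min at 37° C with increasing peptide concentrations, 100 µM IBMX and 0.1% casein (Tyrode, pH 7.4). A 4-parameter logistic fit gave EC50 and % efficacy versus pramlintide.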

[2] = Solubility assessment (turbidity absorbance at 325 nm); assay type: physicochemical; conditions: stock 2 mg/ml diluted 1:1, ambient temperature (typically 25°C), n=1; for Solubility, Acetate buffer pH 4: 100 mM acetate buffer pH 4.0; for Solubility, Acetate buffer pH 5: 100 mM acetate buffer pH 5.0; for Solubility, Histidine buffer pH 6: 100 mM histidine buffer pH 6.0; for Solubility, Histidine buffer pH 7: 100 mM histidine buffer pH 7.0; for Solubility, Phosphate buffer pH 6: 100 mM phosphate buffer pH 6.0; for Solubility, Phosphate buffer pH 7: 100 mM phosphate buffer pH 7.0; for Solubility, Phosphate buffer pH 7.5: 100 mM phosphate buffer pH7.5
How it was run: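 Turbidity read as absorbance at 325 nm (also 280 nm), single samples at ambient temperature (typically 25°C); ≤ 0.02 units counts as ≥ 1 mg/ml soluble. Samples made by 1:1 dilution of a 2 mg/ml acidic stock into 100 mM acetate, histidine or phosphate buffers, pH 4.0–7.5.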

[3] = cAMP induction in COS7 cells expressing hCTR2, average of a minimum of 3 determinations, read-out: hCTR2 EC50

| Compound | EC50 [1] [nM] | Solubility, Acetate buffer pH 4 [2] | Solubility, Acetate buffer pH 5 [2] | Solubility, Histidine buffer pH 6 [2] | Solubility, Histidine buffer pH 7 [2] | Solubility, Phosphate buffer pH 6 [2] | Solubility, Phosphate buffer pH 7 [2] | Solubility, Phosphate buffer pH 7.5 [2] | EC50 [1, 3] [nM] |
| --- | --- | --- | --- | --- | --- | --- | --- | --- | --- |
| CCCCCCCCCCCCCCCCCC(=O)N[C@@H](CCC(=O)N[C@@H](CCCNC(=N)N)C(=O)N[C@H]1CSSC[C@@H](C(=O)N[C@@H](C)C(=O)N[C@H](C(=O)N[C@@H](CCC(N)=O)C(=O)N[C@@H](CCCNC(=N)N)C(=O)N[C@@H](CC(C)C)C(=O)N[C@@H](C)C(=O)N[C@@H](CCC(=O)O)C(=O)N[C@@H](Cc2ccccc2)C(=O)N[C@@H](CC(C)C)C(=O)N[C@@H](Cc2c[nH]cn2)C(=O)N[C@@H](CCCNC(=N)N)C(=O)N[C@@H](CO)C(=O)N[C@@H](CO)C(=O)N[C@@H](CC(N)=O)C(=O)N[C@@H](CC(N)=O)C(=O)N[C@@H](Cc2ccccc2)C(=O)N(C)CC(=O)N[C@@H](C)C(=O)N(C)[C@H](C(=O)N[C@@H](CC(C)C)C(=O)N[C@@H](CO)C(=O)N[C@@H](CO)C(=O)N[C@H](C(=O)N[C@@H](CC(N)=O)C(=O)N[C@H](C(=O)NCC(=O)N[C@@H](CO)C(=O)N[C@@H](CC(N)=O)C(=O)N[C@H](C(=O)N2CCC[C@H]2C(N)=O)[C@@H](C)O)C(C)C)[C@@H](C)O)[C@@H](C)CC)[C@@H](C)O)NC(=O)[C@H]([C@@H](C)O)NC(=O)[C@H](C)NC(=O)[C@H]([C@@H](C)O)NC(=O)[C@H](CC(N)=O)NC1=O)C(=O)O [Compound 93, [Octadecanoyl]-isoGlu-RC()NTATC()ATQRLAEFLHRSSNNF-Gly(Me)-A-Ile(Me)-LSSTNVGSNTP-NH2] ({Stearoyl-γGlu}-RCNTATCATQRLAEFLHRSSNNF[Sar]A[NMeI]LSSTNVGSNTP-NH2; disulfide 2-7) | 0.064 | SS (SS indicates solubility ≥ 1mg/ml) | SS (SS indicates solubility ≥ 1mg/ml) | SS (SS indicates solubility ≥ 1mg/ml) | SS (SS indicates solubility ≥ 1mg/ml) | SS (SS indicates solubility ≥ 1mg/ml) | SS (SS indicates solubility ≥ 1mg/ml) | SS (SS indicates solubility ≥ 1mg/ml) |  |
| CC[C@H](C)[C@@H](C(=O)N[C@@H](CC(C)C)C(=O)N[C@@H](CO)C(=O)N[C@@H](CO)C(=O)N[C@H](C(=O)N[C@@H](CC(N)=O)C(=O)N[C@H](C(=O)NCC(=O)N[C@@H](CO)C(=O)N[C@@H](CC(N)=O)C(=O)N[C@H](C(=O)N1CCC[C@H]1C(N)=O)[C@@H](C)O)C(C)C)[C@@H](C)O)N(C)C(=O)CN(C)C(=O)[C@H](Cc1ccccc1)NC(=O)[C@H](CC(N)=O)NC(=O)[C@H](CC(N)=O)NC(=O)[C@H](CO)NC(=O)[C@H](CO)NC(=O)[C@H](CC(C)C)NC(=O)[C@H](Cc1ccccc1)NC(=O)[C@H](CCC(=O)O)NC(=O)[C@H](C)NC(=O)[C@H](CC(C)C)NC(=O)[C@H](CCCNC(=N)N)NC(=O)[C@H](CCC(N)=O)NC(=O)[C@@H](NC(=O)[C@H](C)NC(=O)[C@@H]1CSSC[C@H](NC(=O)[C@H](CCCNC(=N)N)NC(=O)CC[C@H](NC(=O)CCCCCCCCCCCCCCCCCCC(=O)O)C(=O)O)C(=O)N[C@@H](CC(N)=O)C(=O)N[C@@H]([C@@H](C)O)C(=O)N[C@@H](C)C(=O)N[C@@H]([C@@H](C)O)C(=O)N1)[C@@H](C)O [Compound 42, [19CD]-isoGlu-RC()NTATC()ATQRLAEFLSSNNF-Gly(Me)-Ile(Me)-LSSTNVGSNTP-NH2] ({C20 diacid-γGlu}-RCNTATCATQRLAEFLSSNNF[Sar][NMeI]LSSTNVGSNTP-NH2; disulfide 2-7) |  | SS (SS indicates solubility ≥ 1mg/ml) | SS (SS indicates solubility ≥ 1mg/ml) | SS (SS indicates solubility ≥ 1mg/ml) | SS (SS indicates solubility ≥ 1mg/ml) | SS (SS indicates solubility ≥ 1mg/ml) | SS (SS indicates solubility ≥ 1mg/ml) | SS (SS indicates solubility ≥ 1mg/ml) | 0.12 |
| CC[C@H](C)[C@@H](C(=O)N[C@@H](CC(C)C)C(=O)N[C@@H](CO)C(=O)N[C@@H](CO)C(=O)N[C@H](C(=O)N[C@@H](CC(N)=O)C(=O)N[C@H](C(=O)NCC(=O)N[C@@H](CO)C(=O)N[C@@H](CC(N)=O)C(=O)N[C@H](C(=O)N1CCC[C@H]1C(N)=O)[C@@H](C)O)C(C)C)[C@@H](C)O)N(C)C(=O)CN(C)C(=O)[C@H](Cc1ccccc1)NC(=O)[C@H](CO)NC(=O)[C@H](CO)NC(=O)[C@H](Cc1c[nH]cn1)NC(=O)[C@H](Cc1c[nH]cn1)NC(=O)[C@H](CC(C)C)NC(=O)[C@H](Cc1ccccc1)NC(=O)[C@H](CCC(=O)O)NC(=O)[C@H](C)NC(=O)[C@H](CC(C)C)NC(=O)[C@H](CCCNC(=N)N)NC(=O)[C@H](CCC(N)=O)NC(=O)[C@@H](NC(=O)[C@H](C)NC(=O)[C@@H]1CSSC[C@H](NC(=O)[C@H](CCCNC(=N)N)NC(=O)CC[C@H](NC(=O)CCCCCCCCCCCCCCCCCCC(=O)O)C(=O)O)C(=O)N[C@@H](CC(N)=O)C(=O)N[C@@H]([C@@H](C)O)C(=O)N[C@@H](C)C(=O)N[C@@H]([C@@H](C)O)C(=O)N1)[C@@H](C)O [Compound 53, [19CD]-isoGlu-RC()NTATC()ATQRLAEFLHHSSF-Gly(Me)-Ile(Me)-LSSTNVGSNTP-NH2] ({C20 diacid-γGlu}-RCNTATCATQRLAEFLHHSSF[Sar][NMeI]LSSTNVGSNTP-NH2; disulfide 2-7) |  | SS (SS indicates solubility ≥ 1mg/ml) | SS (SS indicates solubility ≥ 1mg/ml) | SS (SS indicates solubility ≥ 1mg/ml) | SS (SS indicates solubility ≥ 1mg/ml) | SS (SS indicates solubility ≥ 1mg/ml) | SS (SS indicates solubility ≥ 1mg/ml) | SS (SS indicates solubility ≥ 1mg/ml) | 0.12 |
| CC[C@H](C)[C@@H](C(=O)N[C@@H](CC(C)C)C(=O)N[C@@H](CO)C(=O)N[C@@H](CO)C(=O)N[C@H](C(=O)N[C@@H](CC(N)=O)C(=O)N[C@H](C(=O)NCC(=O)N[C@@H](CO)C(=O)N[C@@H](CC(N)=O)C(=O)N[C@H](C(=O)N1CCC[C@H]1C(N)=O)[C@@H](C)O)C(C)C)[C@@H](C)O)N(C)C(=O)[C@H](C)NC(=O)CN(C)C(=O)[C@H](Cc1ccccc1)NC(=O)[C@H](CC(N)=O)NC(=O)[C@H](CC(N)=O)NC(=O)[C@H](CO)NC(=O)[C@H](CO)NC(=O)[C@H](Cc1c[nH]cn1)NC(=O)[C@H](Cc1c[nH]cn1)NC(=O)[C@H](CC(C)C)NC(=O)[C@H](Cc1ccccc1)NC(=O)[C@H](CCC(=O)O)NC(=O)[C@H](C)NC(=O)[C@H](CC(C)C)NC(=O)[C@H](CCCNC(=N)N)NC(=O)[C@H](CCC(N)=O)NC(=O)[C@@H](NC(=O)[C@H](C)NC(=O)[C@@H]1CSSC[C@H](NC(=O)[C@H](C)NC(=O)CC[C@H](NC(=O)CCCCCCCCCCCCCCCCCCC(=O)O)C(=O)O)C(=O)N[C@@H](CC(N)=O)C(=O)N[C@@H]([C@@H](C)O)C(=O)N[C@@H](C)C(=O)N[C@@H]([C@@H](C)O)C(=O)N1)[C@@H](C)O [Compound 5, [19CD]-isoGlu-AC()NTATC()ATQRLAEFLHHSSNNF-Gly(Me)-A-Ile(Me)-LSSTNVGSNTP-NH2] ({C20 diacid-γGlu}-ACNTATCATQRLAEFLHHSSNNF[Sar]A[NMeI]LSSTNVGSNTP-NH2; disulfide 2-7) | 0.75 | SS (SS indicates solubility ≥ 1mg/ml) | SS (SS indicates solubility ≥ 1mg/ml) | SS (SS indicates solubility ≥ 1mg/ml) | SS (SS indicates solubility ≥ 1mg/ml) | SS (SS indicates solubility ≥ 1mg/ml) | SS (SS indicates solubility ≥ 1mg/ml) | SS (SS indicates solubility ≥ 1mg/ml) |  |
